According to US20260166039A1 (SCHRÖDINGER, INC., priority 2022, published 2026):
Like-named read-outs stand apart in the source and are kept apart here.

Legend:
[1] = biological target: T1, Wee1 kinase domain (Homo sapiens, UniProt P30291); experiment: Wee1 Kinase Biochemical Assay (ADP-Glo); conditions: 15 uM ATP
T1 construct: Wee1 kinase domain was purchased from Carna (catalog #05-177); purchased Carna 05-177
Procedure, shortened: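 Kinase domain (1 nM) incubated 4 h at 25 °C with 15 uM ATP and 2 ng/mL Poly(Lys,Tyr 4:1) in 40 mM Tris-HCl, 20 mM MgCl2, 0.1 mg/mL BSA, 2 mM DTT. ADP formation read by ADP-Glo luminescence; percent inhibition normalized to DMSO and saturating reference-inhibitor controls.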

[2] = tested on: phosphorylation of Cdc2 Y15 (Wee1 substrate) in A427 cells; experiment: Phosphorylated Cdc2 MSD Electrochemiluminescence Assay; type: cell-based; conditions: Homo sapiens
Procedure, shortened: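 A427 cells (RPMI 1640, 10% FBS) treated 20 h after plating with 3-fold serial compound dilutions, in duplicate, 37 °C, 5% CO2; total incubation 6 h. Lysate Cdc2 pY15 read by MSD electrochemiluminescence sandwich immunoassay; % remaining signal normalised to DMSO (high) and reference Wee1 inhibitor (low) controls.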

[3] = class symbols, 1 nM Wee1 enzyme, 4 hours at 25° C.
[4] = A-427, class symbols, read-out: A427 pCDC2 MSD IC50

T1 sequence (P30291 299-569 limits assumed): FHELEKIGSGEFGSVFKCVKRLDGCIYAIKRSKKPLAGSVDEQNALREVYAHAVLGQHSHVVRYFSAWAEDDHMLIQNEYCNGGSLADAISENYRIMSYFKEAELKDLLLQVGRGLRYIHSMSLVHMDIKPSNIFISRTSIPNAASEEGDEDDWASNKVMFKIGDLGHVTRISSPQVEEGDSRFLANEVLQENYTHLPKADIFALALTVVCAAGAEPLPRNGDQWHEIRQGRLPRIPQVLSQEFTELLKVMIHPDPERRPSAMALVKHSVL

| IC50 [1, 3] | IC50 [2, 4] | IC50 ([1]; Wee1 kinase domain, ADP-Glo) | IC50 ([2]; A-427, pCDC2 MSD) | SMILES | further results |
| --- | --- | --- | --- | --- | --- |
| < 10 nM | 100 to 1000 nM |  |  | CN1CC[C@H](c2ccc(Nc3ncc4c(n3)N(c3cccc(N5CCCC5=O)n3)[C@@H]3CC(C)(C)OC[C@]43C)cc2)C1 [Example 634, 1-(6-((4bR,8aR)-4b,7,7-trimethyl-2-((4-((R)-1-methylpyrrolidin-3-yl)phenyl)amino)-4b,7,8,8a-tetrahydropyrano[3′,4′:4,5]pyrrolo[2,3-d]pyrimidin-9(5H)-yl)pyridin-2-yl)pyrrolidin-2-one] |  |
| < 10 nM | 1000 to 10000 nM |  |  | CN(C)Cc1cccc(N2c3nc(Nc4ccc(C(C)(C)C(=O)O)cc4)ncc3[C@@]3(C)COC(C)(C)C[C@@H]23)n1 [Example 611] |  |
| < 10 nM | 100 to 1000 nM |  |  | CNCc1cccc(N2c3nc(NC(=O)[C@@H]4C[C@H]4c4ccccc4)ncc3[C@@]3(C)COC(C)(C)C[C@@H]23)n1 [Example 760, (1R,2R)-2-phenyl-N-((4bR,8aR)-4b,7,7-trimethyl-9-(6-((methylamino)methyl)pyridin-2-yl)-4b,5,7,8,8a,9-hexahydropyrano[3′,4′:4,5]pyrrolo[2,3-d]pyrimidin-2-yl)cyclopropane-1-carboxamide] |  |
| < 10 nM | 100 to 1000 nM |  |  | CN1CC2(C1)CN(c1ccc(Nc3ncc4c(n3)N(c3cccc(P(C)(C)=O)n3)[C@@H]3CC(C)(C)OC[C@]43C)cc1)C2 (single isomer, unassigned) [Example 775] |  |
| < 10 nM | 100 to 1000 nM |  |  | CNCc1cccc(N2c3nc(NC(=O)[C@@H]4C[C@H]4c4cccnc4)ncc3[C@@]3(C)COC(C)(C)C[C@@H]23)n1 [Example 768, (1R,2R)-2-(pyridin-3-yl)-N-((4bR,8aR)-4b,7,7-trimethyl-9-(6-((methylamino)methyl)pyridin-2-yl)-4b,5,7,8,8a,9-hexahydropyrano[3′,4′:4,5]pyrrolo[2,3-d]pyrimidin-2-yl)cyclopropane-1-carboxamide] |  |
| < 10 nM | 100 to 1000 nM |  |  | CN1CCN(c2ccc(Nc3ncc4c(n3)N(c3cccc(N5C(=O)CCC5(C)C)n3)[C@@H]3CC(C)(C)OC[C@]43C)cc2)CC1 (single isomer, unassigned) [Example 729] |  |
| < 10 nM | 100 to 1000 nM |  |  | CN1C[C@@H]2C[C@H]1CN2c1ccc(Nc2ncc3c(n2)N(c2cccc(N4CCCC4=O)n2)[C@@H]2CC(C)(C)OC[C@]32C)cc1F [Example 640, 1-(6-((4bR,8aR)-2-((3-fluoro-4-((1S,4S)-5-methyl-2,5-diazabicyclo[2.2.1]heptan-2-yl)phenyl)amino)-4b,7,7-trimethyl-4b,7,8,8a-tetrahydropyrano[3′,4′:4,5]pyrrolo[2,3-d]pyrimidin-9(5H)-yl)pyridin-2-yl)pyrrolidin-2-one] |  |
| < 10 nM | 1000 to 10000 nM |  |  | CN1C[C@@H]2C[C@H]1CN2c1ccc(Nc2ncc3c(n2)N(c2cccc(P(C)(C)=O)n2)[C@@H]2CC(C)(C)OC[C@]32C)cc1 [Example 777, dimethyl(6-((4bR,8aR)-4b,7,7-trimethyl-2-((4-((1S,4S)-5-methyl-2,5-diazabicyclo[2.2.1]heptan-2-yl)phenyl)amino)-4b,7,8,8a-tetrahydropyrano[3′,4′:4,5]pyrrolo[2,3-d]pyrimidin-9(5H)-yl)pyridin-2-yl)phosphine oxide] |  |

Second part, the compound before the results:

| SMILES | IC50 [1, 3] | IC50 [2, 4] | IC50 ([1]; Wee1 kinase domain, ADP-Glo) | IC50 ([2]; A-427, pCDC2 MSD) | further results |
| --- | --- | --- | --- | --- | --- |
| CNCc1cccc(N2c3nc(Nc4ccc(N5C(=O)CC[C@H]5C)cc4)ncc3[C@@]3(C)COC(C)(C)C[C@@H]23)n1 (single isomer, unassigned) [Example 30] |  |  | < 10 nM | 100 to 1000 nM |  |
| C[C@H]1CCC(=O)N1c1cccc(N2c3nc(Nc4ccc(N5C[C@H]6C[C@@H](C5)N6C)cc4)ncc3[C@@]3(C)COC(C)(C)C[C@@H]23)n1 (single isomer, unassigned) [Example 748] | < 10 nM | 100 to 1000 nM |  |  |  |
| CN1C[C@@H]2C[C@H]1CN2c1ccc(Nc2ncc3c(n2)N(c2ccn(C)n2)[C@@H]2CC(C)(C)OC[C@]32C)cc1 (single isomer, unassigned) [Example 519] | < 10 nM | 100 to 1000 nM |  |  |  |
| C[C@H]1COC(=O)N1c1cccc(N2c3nc(Nc4cn(C5CCN(C)CC5)nn4)ncc3[C@@]3(C)COC(C)(C)C[C@@H]23)n1 (single isomer, unassigned) [Example 253] |  |  | < 10 nM | 100 to 1000 nM |  |
| CC[C@@]1(O)CCc2ccc(N3c4nc(Nc5ccn(C6CCN(C)CC6)c(=O)c5)ncc4[C@@]4(C)COC(C)(C)C[C@@H]34)nc21 [Example 812, 4-(((4bR,8aR)-9-((R)-7-ethyl-7-hydroxy-6,7-dihydro-5H-cyclopenta[b]pyridin-2-yl)-4b,7,7-trimethyl-4b,5,7,8,8a,9-hexahydropyrano[3′,4′:4,5]pyrrolo[2,3-d]pyrimidin-2-yl)amino)-1-(1-methylpiperidin-4-yl)pyridin-2(1H)-one] |  |  |  |  | IC50 ([1]; 1 nM Wee1 enzyme, 4 hours at 25° C): < 10 nM; IC50 ([2]; A-427, read-out: A427 pCDC2 MSD IC50): 100 to 1000 nM |
| CNCc1cccc(N2c3nc(Nc4ccc(N5CCOC[C@@H]5C)cc4)ncc3[C@@]3(C)COC(C)(C)C[C@@H]23)n1 (single isomer, unassigned) [Example 476] | < 10 nM | 100 to 1000 nM |  |  |  |
| C[C@H]1COC(=O)N1c1cccc(N2c3nc(Nc4ccc(O[C@@H]5CCN(C)C5)nc4)ncc3[C@@]3(C)COC(C)(C)C[C@@H]23)n1 (single isomer, unassigned) [Example 283] |  |  | < 10 nM | 100 to 1000 nM |  |
| CN1CC[C@H](Oc2ccc(Nc3ncc4c(n3)N(c3cccc(N=S(C)(C)=O)n3)[C@@H]3CC(C)(C)OC[C@]43C)cc2)C1 (single isomer, unassigned) [Example 157] |  |  | < 10 nM | < 100 nM |  |
| CC1(C)C[C@H]2N(c3cccc(N=S(C)(C)=O)n3)c3nc(Nc4ccc(C5CNC5)cc4)ncc3[C@@]2(C)CO1 (single isomer, unassigned) [Example 163] |  |  | < 10 nM | < 100 nM |  |
| CN[C@]1(C)CCc2ccc(N3c4nc(Nc5ccc(N6CCOCC6)cc5)ncc4[C@@]4(C)COC(C)(C)C[C@@H]34)nc21 (single isomer, unassigned) [Example 569] | < 10 nM | < 100 nM |  |  |  |
| CN1CCC(n2cc(Nc3ncc4c(n3)N(c3cccc(N=S(C)(C)=O)n3)[C@H]3CC(C)(C)OC[C@@]43C)cn2)CC1 (single isomer, unassigned) [Example 101] |  |  | 100 to 1000 nM | 1000 to 10000 nM |  |
| CN(C)Cc1cccc(N2c3nc(Nc4ccc(N5CCOCC5)cc4)ncc3[C@@]3(C)COC(C)(C)C[C@@H]23)n1 (single isomer, unassigned) [Example 523] | < 10 nM | 100 to 1000 nM |  |  |  |
| CN1Cc2cc(Nc3ncc4c(n3)N(c3cccc(N=S(C)(C)=O)n3)[C@@H]3CC(C)(C)OC[C@]43C)cnc2C1 (single isomer, unassigned) [Example 188] |  |  | < 10 nM | < 100 nM |  |
| Cc1cc(Nc2ncc3c(n2)N(c2cccc(N=S(C)(C)=O)n2)[C@@H]2CC(C)(C)OC[C@]32C)ccc1N1CCN(C)CC1 (single isomer, unassigned) [Example 106] |  |  | < 10 nM | < 100 nM |  |
| CNCc1cccc(N2c3nc(Nc4ccc(-c5cnn(C)c5)c(C)c4)ncc3[C@@]3(C)COC(C)(C)C[C@@H]23)n1 (single isomer, unassigned) [Example 464] | < 10 nM | 100 to 1000 nM |  |  |  |
| CC1(C)C[C@H]2N(c3cccc(N=S(C)(C)=O)n3)c3nc(NC(=O)[C@H]4C[C@@H]4c4cccnc4)ncc3[C@@]2(C)CO1 (single isomer, unassigned) [Example 402] | 10 to 100 nM | 1000 to 10000 nM |  |  |  |
